Measured values published in the kinase profiling compilation of Christmann-Franck et al. (2016).

Columns and labels:
Assay in all cases: radiometric filter-binding kinase assay, Kinase HotSpot
Conditions in all cases: compound 0.5 µM; ATP 10 µM
ABL1 (human) = ABL1 (human) (UniProt P00519)
ACVR1 (human) = ACVR1 (human) (UniProt Q04771)
ADRBK1 (human) = ADRBK1 (human) (UniProt P25098)
ADRBK2 (human) = ADRBK2 (human) (UniProt P35626)
BRAF (human) = BRAF (human) (UniProt P15056)
CAMK1G (human) = CAMK1G (human) (UniProt Q96NX5)
CDC42BPB (human) = CDC42BPB (human) (UniProt Q9Y5S2)
CDK1 CCNB1 (human) = CDK1 CCNB1 (human) (UniProt P06493+P14635)
CHUK (human) = CHUK (human) (UniProt O15111)
DAPK3 (human) = DAPK3 (human) (UniProt O43293)
DYRK1A (human) = DYRK1A (human) (UniProt Q13627)
DYRK2 (human) = DYRK2 (human) (UniProt Q92630)
Sequence of DYRK2 (human) (Q92630 whole entry, looked up): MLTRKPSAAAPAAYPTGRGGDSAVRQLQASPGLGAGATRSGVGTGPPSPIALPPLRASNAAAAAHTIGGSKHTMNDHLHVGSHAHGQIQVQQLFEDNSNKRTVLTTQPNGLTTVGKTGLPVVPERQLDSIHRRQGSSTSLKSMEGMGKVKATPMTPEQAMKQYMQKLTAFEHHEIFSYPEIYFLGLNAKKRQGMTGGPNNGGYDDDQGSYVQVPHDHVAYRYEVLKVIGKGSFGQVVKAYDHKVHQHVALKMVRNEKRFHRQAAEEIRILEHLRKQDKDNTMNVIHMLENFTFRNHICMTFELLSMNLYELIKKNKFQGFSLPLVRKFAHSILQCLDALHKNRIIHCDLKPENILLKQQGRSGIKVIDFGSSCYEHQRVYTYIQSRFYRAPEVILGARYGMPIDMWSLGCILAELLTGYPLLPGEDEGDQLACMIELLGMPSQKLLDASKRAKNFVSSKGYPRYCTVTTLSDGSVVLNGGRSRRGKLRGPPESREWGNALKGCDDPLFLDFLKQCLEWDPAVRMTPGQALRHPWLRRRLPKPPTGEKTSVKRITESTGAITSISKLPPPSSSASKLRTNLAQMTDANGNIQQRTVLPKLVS

EPHB3 (human) = EPHB3 (human) (UniProt P54753)
Sequence of EPHB3 (human) (P54753 whole entry, looked up): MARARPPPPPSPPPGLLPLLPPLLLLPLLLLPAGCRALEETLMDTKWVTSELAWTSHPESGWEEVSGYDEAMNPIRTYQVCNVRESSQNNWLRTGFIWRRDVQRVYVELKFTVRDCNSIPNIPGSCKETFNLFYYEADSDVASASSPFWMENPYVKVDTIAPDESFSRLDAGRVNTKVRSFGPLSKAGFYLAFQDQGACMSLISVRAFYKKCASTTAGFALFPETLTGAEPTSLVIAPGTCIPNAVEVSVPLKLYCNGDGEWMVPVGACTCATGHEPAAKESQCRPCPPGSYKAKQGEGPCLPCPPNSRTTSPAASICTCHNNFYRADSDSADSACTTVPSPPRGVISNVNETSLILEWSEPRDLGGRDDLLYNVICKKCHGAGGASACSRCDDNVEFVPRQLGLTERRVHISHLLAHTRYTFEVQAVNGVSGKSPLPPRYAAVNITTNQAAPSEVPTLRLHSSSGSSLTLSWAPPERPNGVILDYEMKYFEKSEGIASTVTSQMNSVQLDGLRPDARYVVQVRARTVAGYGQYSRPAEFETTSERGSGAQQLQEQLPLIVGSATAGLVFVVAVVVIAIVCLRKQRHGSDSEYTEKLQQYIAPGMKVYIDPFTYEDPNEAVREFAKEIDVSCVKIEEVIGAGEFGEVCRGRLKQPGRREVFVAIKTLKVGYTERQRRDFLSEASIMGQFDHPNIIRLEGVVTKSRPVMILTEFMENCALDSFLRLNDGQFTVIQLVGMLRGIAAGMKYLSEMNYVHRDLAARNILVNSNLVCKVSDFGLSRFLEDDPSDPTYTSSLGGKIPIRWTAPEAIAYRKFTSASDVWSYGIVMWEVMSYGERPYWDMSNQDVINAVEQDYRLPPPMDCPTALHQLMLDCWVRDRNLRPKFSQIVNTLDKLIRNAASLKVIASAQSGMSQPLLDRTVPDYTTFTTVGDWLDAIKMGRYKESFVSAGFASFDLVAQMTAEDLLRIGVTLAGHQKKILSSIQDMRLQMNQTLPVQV

ERBB2 (human) = ERBB2 (human) (UniProt P04626)
FGR (human) = FGR (human) (UniProt P09769)
IKBKB (human) = IKBKB (human) (UniProt O14920)
ITK (human) = ITK (human) (UniProt Q08881)
LRRK2 (human) = LRRK2 (human) (UniProt Q5S007)
Sequence of LRRK2 (human) (Q5S007 whole entry, looked up): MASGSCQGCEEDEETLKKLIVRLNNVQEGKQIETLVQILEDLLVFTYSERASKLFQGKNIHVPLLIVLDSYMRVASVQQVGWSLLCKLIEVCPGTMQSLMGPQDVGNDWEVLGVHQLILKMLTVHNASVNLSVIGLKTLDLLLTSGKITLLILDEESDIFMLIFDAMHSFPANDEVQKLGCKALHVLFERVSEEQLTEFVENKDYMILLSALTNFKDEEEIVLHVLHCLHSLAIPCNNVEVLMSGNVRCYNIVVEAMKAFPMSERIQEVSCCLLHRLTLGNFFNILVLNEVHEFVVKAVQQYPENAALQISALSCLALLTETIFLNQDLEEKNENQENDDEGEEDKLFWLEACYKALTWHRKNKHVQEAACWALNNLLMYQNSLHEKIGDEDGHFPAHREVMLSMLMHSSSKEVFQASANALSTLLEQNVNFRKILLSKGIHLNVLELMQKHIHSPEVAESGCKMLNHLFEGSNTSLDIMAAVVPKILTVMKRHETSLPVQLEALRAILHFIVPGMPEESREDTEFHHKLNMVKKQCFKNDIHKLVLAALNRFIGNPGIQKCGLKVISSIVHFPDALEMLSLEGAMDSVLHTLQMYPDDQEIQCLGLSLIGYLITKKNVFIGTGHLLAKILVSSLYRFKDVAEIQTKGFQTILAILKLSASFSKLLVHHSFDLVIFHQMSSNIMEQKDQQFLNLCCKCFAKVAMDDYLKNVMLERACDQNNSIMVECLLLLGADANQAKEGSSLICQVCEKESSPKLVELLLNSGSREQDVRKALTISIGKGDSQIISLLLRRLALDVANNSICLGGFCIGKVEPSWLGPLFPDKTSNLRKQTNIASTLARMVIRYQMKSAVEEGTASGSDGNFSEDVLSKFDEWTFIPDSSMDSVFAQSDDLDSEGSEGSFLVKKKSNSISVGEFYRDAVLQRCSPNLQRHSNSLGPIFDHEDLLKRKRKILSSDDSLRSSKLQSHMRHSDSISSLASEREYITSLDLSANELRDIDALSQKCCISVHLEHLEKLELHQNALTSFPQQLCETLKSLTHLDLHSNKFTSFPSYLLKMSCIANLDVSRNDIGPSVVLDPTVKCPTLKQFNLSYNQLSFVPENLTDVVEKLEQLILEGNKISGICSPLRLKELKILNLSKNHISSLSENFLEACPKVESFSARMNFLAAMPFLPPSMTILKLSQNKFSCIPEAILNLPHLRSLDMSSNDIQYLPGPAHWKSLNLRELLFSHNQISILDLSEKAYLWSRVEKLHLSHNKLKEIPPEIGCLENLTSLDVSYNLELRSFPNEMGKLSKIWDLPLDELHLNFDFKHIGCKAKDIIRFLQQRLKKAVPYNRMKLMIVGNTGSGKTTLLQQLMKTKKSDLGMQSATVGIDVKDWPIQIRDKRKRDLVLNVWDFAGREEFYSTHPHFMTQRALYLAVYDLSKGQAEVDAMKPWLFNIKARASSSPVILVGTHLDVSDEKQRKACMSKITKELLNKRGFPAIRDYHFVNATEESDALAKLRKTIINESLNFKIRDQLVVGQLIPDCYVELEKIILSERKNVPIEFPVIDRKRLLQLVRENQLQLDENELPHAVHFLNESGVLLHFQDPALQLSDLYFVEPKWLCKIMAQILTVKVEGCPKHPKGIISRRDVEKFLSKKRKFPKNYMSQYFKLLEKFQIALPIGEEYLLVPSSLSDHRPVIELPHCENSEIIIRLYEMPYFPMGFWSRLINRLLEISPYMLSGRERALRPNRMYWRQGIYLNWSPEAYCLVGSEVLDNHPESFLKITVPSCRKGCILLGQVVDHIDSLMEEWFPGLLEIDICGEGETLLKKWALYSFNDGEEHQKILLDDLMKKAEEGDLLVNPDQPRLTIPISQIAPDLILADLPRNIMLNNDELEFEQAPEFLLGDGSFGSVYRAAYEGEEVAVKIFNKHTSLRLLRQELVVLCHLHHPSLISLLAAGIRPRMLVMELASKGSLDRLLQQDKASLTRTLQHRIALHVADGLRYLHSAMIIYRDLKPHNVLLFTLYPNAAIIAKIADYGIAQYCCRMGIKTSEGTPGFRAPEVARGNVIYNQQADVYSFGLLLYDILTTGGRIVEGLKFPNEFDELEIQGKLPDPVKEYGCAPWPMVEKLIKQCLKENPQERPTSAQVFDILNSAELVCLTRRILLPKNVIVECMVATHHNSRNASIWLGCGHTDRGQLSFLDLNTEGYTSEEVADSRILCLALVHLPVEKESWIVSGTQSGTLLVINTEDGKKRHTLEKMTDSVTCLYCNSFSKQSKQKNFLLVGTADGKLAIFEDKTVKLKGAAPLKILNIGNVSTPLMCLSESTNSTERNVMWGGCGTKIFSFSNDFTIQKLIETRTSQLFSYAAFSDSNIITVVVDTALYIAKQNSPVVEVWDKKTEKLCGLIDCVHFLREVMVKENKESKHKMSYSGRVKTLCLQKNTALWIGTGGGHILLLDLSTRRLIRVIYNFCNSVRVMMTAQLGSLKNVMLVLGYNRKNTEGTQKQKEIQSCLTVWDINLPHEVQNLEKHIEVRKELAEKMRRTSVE

MAP2K1 (human) = MAP2K1 (human) (UniProt Q02750)
NEK6 (human) = NEK6 (human) (UniProt Q9HC98)
NEK9 (human) = NEK9 (human) (UniProt Q8TD19)
PAK1 (human) = PAK1 (human) (UniProt Q13153)
PDPK1 (human) = PDPK1 (human) (UniProt O15530)
PIM2 (human) = PIM2 (human) (UniProt Q9P1W9)
PRKCI (human) = PRKCI (human) (UniProt P41743)
RET (human) = RET (human) (UniProt P07949)
ROCK2 (human) = ROCK2 (human) (UniProt O75116)
SGK3 (human) = SGK3 (human) (UniProt Q96BR1)
STK10 (human) = STK10 (human) (UniProt O94804)
Sequence of STK10 (human) (O94804 whole entry, looked up): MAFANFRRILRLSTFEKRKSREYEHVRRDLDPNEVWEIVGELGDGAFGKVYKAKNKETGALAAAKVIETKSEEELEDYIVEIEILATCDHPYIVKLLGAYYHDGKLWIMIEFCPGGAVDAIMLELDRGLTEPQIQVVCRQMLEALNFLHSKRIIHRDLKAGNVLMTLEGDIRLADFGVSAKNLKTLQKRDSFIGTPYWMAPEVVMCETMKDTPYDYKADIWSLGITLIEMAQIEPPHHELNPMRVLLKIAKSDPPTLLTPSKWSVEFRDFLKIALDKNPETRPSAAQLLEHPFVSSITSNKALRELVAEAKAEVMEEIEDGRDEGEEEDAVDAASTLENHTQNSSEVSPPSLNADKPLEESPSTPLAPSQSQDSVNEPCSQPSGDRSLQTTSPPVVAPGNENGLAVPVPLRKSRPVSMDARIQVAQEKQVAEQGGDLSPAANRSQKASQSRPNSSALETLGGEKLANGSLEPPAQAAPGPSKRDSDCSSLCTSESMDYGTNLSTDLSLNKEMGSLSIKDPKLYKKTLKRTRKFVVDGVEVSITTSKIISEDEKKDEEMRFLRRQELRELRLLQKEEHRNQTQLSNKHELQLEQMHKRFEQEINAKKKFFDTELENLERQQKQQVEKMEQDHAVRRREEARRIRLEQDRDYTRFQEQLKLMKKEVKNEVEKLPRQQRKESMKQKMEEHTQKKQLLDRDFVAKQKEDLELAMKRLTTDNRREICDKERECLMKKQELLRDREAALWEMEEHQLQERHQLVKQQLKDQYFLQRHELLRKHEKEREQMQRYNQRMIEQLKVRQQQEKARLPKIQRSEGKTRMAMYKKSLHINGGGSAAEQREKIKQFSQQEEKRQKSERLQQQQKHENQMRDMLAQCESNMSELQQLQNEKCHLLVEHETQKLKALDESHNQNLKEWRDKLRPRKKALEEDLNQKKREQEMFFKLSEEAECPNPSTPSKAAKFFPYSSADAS

STK3 (human) = STK3 (human) (UniProt Q13188)
TNK2 (human) = TNK2 (human) (UniProt Q07912)
TSSK2 (human) = TSSK2 (human) (UniProt Q96PF2)
TXK (human) = TXK (human) (UniProt P42681)
ULK1 (human) = ULK1 (human) (UniProt O75385)
NTRK1 (human) = NTRK1 (human) (UniProt P04629)

Row | SMILES | residual activity (ABL1 (human)) [%] | residual activity (ACVR1 (human)) [%] | residual activity (ADRBK1 (human)) [%] | residual activity (ADRBK2 (human)) [%] | residual activity (BRAF (human)) [%] | residual activity (CAMK1G (human)) [%] | residual activity (CDC42BPB (human)) [%] | residual activity (CHUK (human)) [%] | residual activity (DAPK3 (human)) [%] | residual activity (DYRK1A (human)) [%] | residual activity (DYRK2 (human)) [%] | residual activity (EPHB3 (human)) [%] | residual activity (ERBB2 (human)) [%] | residual activity (FGR (human)) [%] | residual activity (ITK (human)) [%] | residual activity (LRRK2 (human)) [%] | residual activity (MAP2K1 (human)) [%] | residual activity (NEK6 (human)) [%] | residual activity (NEK9 (human)) [%] | residual activity (PAK1 (human)) [%] | also measured
1 | COc1ccc(CNC(=O)Nc2ncc([N+](=O)[O-])s2)cc1 | 96.8 | 99.5 | 96.4 | 112 | 93.4 | 99.6 | 93.5 | 97.1 | 106 | 95.6 | 103 | 101 | 96.9 | 92.4 | 89.5 | 87.7 | 101 | 100 | 89.4 | 94.2 | residual activity (CDK1 CCNB1 (human)): 85.1%; residual activity (IKBKB (human)): 94.9%; residual activity (PDPK1 (human)): 90%; residual activity (PIM2 (human)): 94.5%; residual activity (PRKCI (human)): 94.4%; residual activity (RET (human)): 97.9%; residual activity (ROCK2 (human)): 99.8%; residual activity (SGK3 (human)): 96.9%; residual activity (STK10 (human)): 94.3%; residual activity (STK3 (human)): 92.6%; residual activity (TNK2 (human)): 96.8%; residual activity (TSSK2 (human)): 105%; residual activity (TXK (human)): 96.9%; residual activity (ULK1 (human)): 97.7%
2 | O=C(Nc1cccc(Nc2cc(Nc3cccc(C(F)(F)F)c3)ncn2)c1)C1CC1 | 103 | 103 | 97.9 | 103 | 96.8 | 96.9 | 97.4 | 95.6 | 99.8 | 104 | 99.9 | 87.9 | 82.5 | 96.4 | 97.2 | 95.6 | 98.9 | 99.2 | 101 | 96.6 | residual activity (CDK1 CCNB1 (human)): 96.4%; residual activity (IKBKB (human)): 100%; residual activity (NTRK1 (human)): 99.6%; residual activity (PDPK1 (human)): 100%; residual activity (PIM2 (human)): 104%; residual activity (PRKCI (human)): 98.1%; residual activity (RET (human)): 109%; residual activity (ROCK2 (human)): 99.2%; residual activity (SGK3 (human)): 106%; residual activity (STK10 (human)): 95.7%; residual activity (STK3 (human)): 102%; residual activity (TNK2 (human)): 98.7%; residual activity (TSSK2 (human)): 103%; residual activity (TXK (human)): 97.1%; residual activity (ULK1 (human)): 100%
3 | CCn1cnc2c(Nc3cccc(Cl)c3)nc(N[C@@H]3CCCC[C@@H]3N)nc21 | 94 | 92.7 | 96.5 | 89.2 | 93 | 94.1 | 97.7 | 91.7 | 105 | 100 | 107 | 92.6 | 95.6 | 45.8 | 105 | 70 | 92.2 | 102 | 95.4 | 88.8 | residual activity (CDK1 CCNB1 (human)): 16.4%; residual activity (NTRK1 (human)): 92.9%; residual activity (PDPK1 (human)): 94.8%; residual activity (PIM2 (human)): 111%; residual activity (PRKCI (human)): 99.7%; residual activity (RET (human)): 69.3%; residual activity (ROCK2 (human)): 90.6%; residual activity (SGK3 (human)): 94.3%; residual activity (STK10 (human)): 75.1%; residual activity (STK3 (human)): 83.9%; residual activity (TNK2 (human)): 92.4%; residual activity (TSSK2 (human)): 109%; residual activity (TXK (human)): 69.1%; residual activity (ULK1 (human)): 74.5%
4 | CC(C)[C@H](CO)Nc1nc(Nc2cc(N)cc(Cl)c2)c2ncn(C(C)C)c2n1 | 45.5 | 99.4 | 83 | 97.1 | 97.5 | 105 | 98.4 | 97.3 | 96.7 | 57.1 | 93.2 | 95.3 | 92.9 | 15 | 80.2 | 101 | 91.3 | 111 | 69.4 | 81.8 | residual activity (IKBKB (human)): 104%; residual activity (NTRK1 (human)): 45.4%; residual activity (PDPK1 (human)): 106%; residual activity (PIM2 (human)): 113%; residual activity (PRKCI (human)): 89.6%; residual activity (RET (human)): 61.6%; residual activity (ROCK2 (human)): 101%; residual activity (SGK3 (human)): 99.9%; residual activity (STK10 (human)): 55.6%; residual activity (STK3 (human)): 70%; residual activity (TNK2 (human)): 47.8%; residual activity (TSSK2 (human)): 102%; residual activity (TXK (human)): 42.5%; residual activity (ULK1 (human)): 41.5%
